{"source": "patent US8952024B2", "about": "“Herbicidal pyrimidone derivatives” (E I du Pont de Nemours and Company, priority 2009, dated 2015)", "assay_in_all_cases": "Test B pre-/postemergence plant response", "assay_type_in_all_cases": "in vivo", "key": {"[1]": {"system": "cocklebur (Xanthium strumarium)", "summary_of_the_method": "(§1)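 Seeds were sown in loam soil/sand blend and treated preemergence with compound in non-phytotoxic solvent mixture containing surfactant; postemergence sprays, same formulation, went onto plants 2 to 18 cm (1- to 4-leaf stage) in peat-based planting medium. Greenhouse 13 to 15 days, then visual rating versus untreated controls, 0 (no effect) to 100 (complete control).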"}, "[2]": {"system": "ragweed (common ragweed, Ambrosia elatior)", "summary_of_the_method": "as §1"}, "[3]": {"system": "large crabgrass (Digitaria sanguinalis)", "summary_of_the_method": "as §1"}, "[4]": {"system": "Italian ryegrass (Lolium multiflorum)", "summary_of_the_method": "as §1"}, "[5]": {"system": "bermudagrass (Cynodon dactylon)", "summary_of_the_method": "as §1"}, "wild oat (Avena fatua)": {"system": "wild oat (Avena fatua)", "summary_of_the_method": "as §1"}, "[6]": {"system": "morningglory (Ipomoea coccinea)", "summary_of_the_method": "as §1"}, "[7]": {"system": "blackgrass (Alopecurus myosuroides)", "summary_of_the_method": "as §1"}, "[8]": {"system": "woolly cupgrass (Eriochloa villosa)", "summary_of_the_method": "as §1"}, "kochia (Kochia scoparia)": {"system": "kochia (Kochia scoparia)", "summary_of_the_method": "as §1"}, "[9]": {"system": "Surinam grass (Brachiaria decumbens)", "summary_of_the_method": "as §1"}, "[10]": {"system": "downy bromegrass (Bromus tectorum)", "summary_of_the_method": "as §1"}, "[11]": {"system": "wheat (Triticum aestivum)", "summary_of_the_method": "as §1"}, "[12]": {"conditions": "31 g ai/ha, postemergence, scale 0 to 100, 0 is no effect, 100 is complete control"}, "[13]": {"conditions": "62 g ai/ha, postemergence, 0 is no effect, 100 is complete control, 13 to 15 days"}, "[14]": {"conditions": "Postemergence, 125 g ai/ha, visual rating after 13 to 15 days, scale 0 (no effect) to 100 (complete control)"}, "[15]": {"conditions": "Postemergence, 250 g ai/ha, scale 0 to 100 (0 no effect, 100 complete control)"}, "[16]": {"conditions": "Preemergence, 31 g ai/ha, scale 0 to 100 (0 no effect, 100 complete control)"}, "[17]": {"conditions": "Preemergence, 62 g ai/ha, scale 0 to 100 (0 no effect, 100 complete control)"}, "[18]": {"conditions": "Preemergence, 125 g ai/ha, scale 0 to 100, 0 no effect, 100 complete control"}, "[19]": {"conditions": "Preemergence, 250 g ai/ha, 0 to 100 scale"}}, "data": [{"smiles": "CCCc1ncc(C(=O)C2=C(O)CCCC2=O)c(=O)n1CC1CCCO1", "note": "(stereo not drawn) [Compound 74]", "values": [{"measurement": "Plant response rating, Cocklebur", "setting": "[1]; [12]", "value": 20}, {"measurement": "Cocklebur plant response rating (0 to 100 scale)", "setting": "[1]; [13]", "value": 85}, {"measurement": "Plant response rating, Cocklebur", "setting": "[1]; [14]", "value": 90}, {"measurement": "Plant response rating, Cocklebur", "setting": "[1]; [15]", "value": 95}, {"measurement": "Plant response rating, Cocklebur", "setting": "[1]; [16]", "value": 10}, {"measurement": "Plant response rating, Cocklebur", "setting": "[1]; [17]", "value": 45}, {"measurement": "Plant response rating, Cocklebur", "setting": "[1]; [18]", "value": 70}, {"measurement": "Cocklebur plant response rating", "setting": "[1]; [19]", "value": 80}, {"measurement": "Plant response rating, Ragweed", "setting": "[2]; [12]", "value": 75}, {"measurement": "Ragweed plant response rating (0 to 100 scale)", "setting": "[2]; [13]", "value": 75}, {"measurement": "Plant response rating, Ragweed", "setting": "[2]; [14]", "value": 85}, {"measurement": "Plant response rating, Ragweed", "setting": "[2]; [15]", "value": 90}, {"measurement": "Plant response rating, Ragweed", "setting": "[2]; [16]", "value": 10}, {"measurement": "Plant response rating, Ragweed", "setting": "[2]; [17]", "value": 98}, {"measurement": "Plant response rating, Ragweed", "setting": "[2]; [18]", "value": 98}, {"measurement": "Ragweed plant response rating", "setting": "[2]; [19]", "value": 100}, {"measurement": "Plant response rating, Crabgrass, Large", "setting": "[3]; [12]", "value": 80}, {"measurement": "Crabgrass, Large plant response rating (0 to 100 scale)", "setting": "[3]; [13]", "value": 80}, {"measurement": "Plant response rating, Crabgrass, Large", "setting": "[3]; [14]", "value": 95}, {"measurement": "Plant response rating, Crabgrass, Large", "setting": "[3]; [15]", "value": 95}, {"measurement": "Plant response rating, Crabgrass, Large", "setting": "[3]; [16]", "value": 98}, {"measurement": "Plant response rating, Crabgrass, Large", "setting": "[3]; [17]", "value": 98}, {"measurement": "Plant response rating, Crabgrass, Large", "setting": "[3]; [18]", "value": 100}, {"measurement": "Crabgrass, Large plant response rating", "setting": "[3]; [19]", "value": 100}, {"measurement": "Plant response rating, Ryegrass, Italian", "setting": "[4]; [12]", "value": 5}, {"measurement": "Ryegrass, Italian plant response rating (0 to 100 scale)", "setting": "[4]; [13]", "value": 20}, {"measurement": "Plant response rating, Ryegrass, Italian", "setting": "[4]; [14]", "value": 20}, {"measurement": "Plant response rating, Ryegrass, Italian", "setting": "[4]; [15]", "value": 35}, {"measurement": "Plant response rating, Ryegrass, Italian", "setting": "[4]; [16]", "value": 0}, {"measurement": "Plant response rating, Ryegrass, Italian", "setting": "[4]; [17]", "value": 0}, {"measurement": "Plant response rating, Ryegrass, Italian", "setting": "[4]; [18]", "value": 0}, {"measurement": "Ryegrass, Italian plant response rating", "setting": "[4]; [19]", "value": 0}, {"measurement": "Plant response rating, Bermudagrass", "setting": "[5]; [12]", "value": 75}, {"measurement": "Bermudagrass plant response rating (0 to 100 scale)", "setting": "[5]; [13]", "value": 80}, {"measurement": "Plant response rating, Bermudagrass", "setting": "[5]; [14]", "value": 95}, {"measurement": "Plant response rating, Bermudagrass", "setting": "[5]; [15]", "value": 98}, {"measurement": "Plant response rating, Bermudagrass", "setting": "[5]; [17]", "value": 98}, {"measurement": "Plant response rating, Bermudagrass", "setting": "[5]; [18]", "value": 100}, {"measurement": "Bermudagrass plant response rating", "setting": "[5]; Preemergence, 250 g ai/ha, 0 to 100 scale, 0 no effect, 100 complete control", "value": 100}, {"measurement": "Plant response rating, Oat, Wild", "setting": "wild oat (Avena fatua); [12]", "value": 20}, {"measurement": "Oat, Wild plant response rating (0 to 100 scale)", "setting": "wild oat (Avena fatua); [13]", "value": 20}, {"measurement": "Plant response rating, Oat, Wild", "setting": "wild oat (Avena fatua); [14]", "value": 60}, {"measurement": "Plant response rating, Oat, Wild", "setting": "wild oat (Avena fatua); [15]", "value": 80}, {"measurement": "Plant response rating, Oat, Wild", "setting": "wild oat (Avena fatua); [16]", "value": 0}, {"measurement": "Plant response rating, Oat, Wild", "setting": "wild oat (Avena fatua); [17]", "value": 0}, {"measurement": "Plant response rating, Oat, Wild", "setting": "wild oat (Avena fatua); [18]", "value": 5}, {"measurement": "Oat, Wild plant response rating", "setting": "wild oat (Avena fatua); [19]", "value": 5}, {"measurement": "Plant response rating, Morningglory", "setting": "[6]; [12]", "value": 60}, {"measurement": "Morningglory plant response rating (0 to 100 scale)", "setting": "[6]; [13]", "value": 85}, {"measurement": "Plant response rating, Morningglory", "setting": "[6]; [14]", "value": 95}, {"measurement": "Plant response rating, Morningglory", "setting": "[6]; [15]", "value": 100}, {"measurement": "Plant response rating, Morningglory", "setting": "[6]; [16]", "value": 10}, {"measurement": "Plant response rating, Morningglory", "setting": "[6]; [17]", "value": 60}, {"measurement": "Plant response rating, Morningglory", "setting": "[6]; [18]", "value": 75}, {"measurement": "Morningglory plant response rating", "setting": "[6]; [19]", "value": 80}, {"measurement": "Plant response rating, Blackgrass", "setting": "[7]; [12]", "value": 0}, {"measurement": "Blackgrass plant response rating (0 to 100 scale)", "setting": "[7]; [13]", "value": 0}, {"measurement": "Plant response rating, Blackgrass", "setting": "[7]; [14]", "value": 25}, {"measurement": "Plant response rating, Blackgrass", "setting": "[7]; [15]", "value": 45}, {"measurement": "Plant response rating, Blackgrass", "setting": "[7]; [16]", "value": 0}, {"measurement": "Plant response rating, Blackgrass", "setting": "[7]; [17]", "value": 0}, {"measurement": "Plant response rating, Blackgrass", "setting": "[7]; [18]", "value": 0}, {"measurement": "Blackgrass plant response rating", "setting": "[7]; [19]", "value": 10}, {"measurement": "Plant response rating, Cupgrass, Woolly", "setting": "[8]; [12]", "value": 10}, {"measurement": "Cupgrass, Woolly plant response rating (0 to 100 scale)", "setting": "[8]; [13]", "value": 10}, {"measurement": "Plant response rating, Cupgrass, Woolly", "setting": "[8]; [14]", "value": 55}, {"measurement": "Plant response rating, Cupgrass, Woolly", "setting": "[8]; [15]", "value": 75}, {"measurement": "Plant response rating, Cupgrass, Woolly", "setting": "[8]; [16]", "value": 0}, {"measurement": "Plant response rating, Cupgrass, Woolly", "setting": "[8]; [17]", "value": 0}, {"measurement": "Plant response rating, Cupgrass, Woolly", "setting": "[8]; [18]", "value": 0}, {"measurement": "Cupgrass, Woolly plant response rating", "setting": "[8]; [19]", "value": 5}, {"measurement": "Plant response rating, Kochia", "setting": "kochia (Kochia scoparia); [12]", "value": 75}, {"measurement": "Kochia plant response rating (0 to 100 scale)", "setting": "kochia (Kochia scoparia); [13]", "value": 75}, {"measurement": "Plant response rating, Kochia", "setting": "kochia (Kochia scoparia); [14]", "value": 95}, {"measurement": "Plant response rating, Kochia", "setting": "kochia (Kochia scoparia); [15]", "value": 98}, {"measurement": "Plant response rating, Kochia", "setting": "kochia (Kochia scoparia); [16]", "value": 80}, {"measurement": "Plant response rating, Kochia", "setting": "kochia (Kochia scoparia); [18]", "value": 85}, {"measurement": "Kochia plant response rating", "setting": "kochia (Kochia scoparia); [19]", "value": 85}, {"measurement": "Plant response rating, Surinam Grass", "setting": "[9]; [12]", "value": 20}, {"measurement": "Surinam Grass plant response rating (0 to 100 scale)", "setting": "[9]; [13]", "value": 45}, {"measurement": "Plant response rating, Surinam Grass", "setting": "[9]; [14]", "value": 65}, {"measurement": "Plant response rating, Surinam Grass", "setting": "[9]; [15]", "value": 75}, {"measurement": "Plant response rating, Surinam Grass", "setting": "[9]; [16]", "value": 0}, {"measurement": "Plant response rating, Surinam Grass", "setting": "[9]; [17]", "value": 80}, {"measurement": "Plant response rating, Surinam Grass", "setting": "[9]; [18]", "value": 85}, {"measurement": "Surinam Grass plant response rating", "setting": "[9]; [19]", "value": 95}, {"measurement": "Plant response rating, Bromegrass, Downy", "setting": "[10]; [12]", "value": 0}, {"measurement": "Bromegrass, Downy plant response rating (0 to 100 scale)", "setting": "[10]; [13]", "value": 5}, {"measurement": "Plant response rating, Bromegrass, Downy", "setting": "[10]; [14]", "value": 5}, {"measurement": "Plant response rating, Bromegrass, Downy", "setting": "[10]; [15]", "value": 35}, {"measurement": "Plant response rating, Bromegrass, Downy", "setting": "[10]; [16]", "value": 0}, {"measurement": "Plant response rating, Bromegrass, Downy", "setting": "[10]; [17]", "value": 0}, {"measurement": "Plant response rating, Bromegrass, Downy", "setting": "[10]; [18]", "value": 0}, {"measurement": "Bromegrass, Downy plant response rating", "setting": "[10]; [19]", "value": 0}, {"measurement": "Plant response rating, Wheat", "setting": "[11]; [12]", "value": 5}, {"measurement": "Wheat plant response rating (0 to 100 scale)", "setting": "[11]; [13]", "value": 5}, {"measurement": "Plant response rating, Wheat", "setting": "[11]; [14]", "value": 30}, {"measurement": "Plant response rating, Wheat", "setting": "[11]; [15]", "value": 50}, {"measurement": "Plant response rating, Wheat", "setting": "[11]; [16]", "value": 0}, {"measurement": "Plant response rating, Wheat", "setting": "[11]; [17]", "value": 0}, {"measurement": "Plant response rating, Wheat", "setting": "[11]; [18]", "value": 0}, {"measurement": "Wheat plant response rating", "setting": "[11]; [19]", "value": 0}]}]}
